In patent publication US8134010B2, “Thiazole-based nitric oxide donors having aryl substituent(s) and uses thereof” (priority 2004, dated 2012):
Entries after “also recorded” stand apart in the source; their conditions may differ.

What was measured:
isolated rat aorta [1] = experiment: In vitro induction of tolerance to NO releasing compounds (vasorelaxation of pre-exposed aortic rings); format: cell-based; settings: rings pre-treated with epinephrine and then with 0.44 mM of the same compound
Protocol: Aortic rings were prepared as described hereinabove, and were exposed to 0.44 mM GTN (vehicle was water:ethanol:propyleneglycol at proportional ratio of 1:1:1) for 1 hour before CCRC construction, to thereby induce tolerance to nitroglycerine. At the end of the tolerance induction period, rings were thrice washed with the path buffer (Krebs-bicrbonate) every 15 minutes for the following hour and then CCRC for vasorelaxation on GTN-induced tolerance rings were constructed for GTN (pretreated versus untreated rings, FIG. 15), in order to verify the ability to induce and measure GTN tolerance induction in vitro
Attempted induction of tolerance to the NO-donating compounds of the present invention was performed under the same conditions as for GTN. Thus, in an exemplary experiment, rings were exposed to 0.44 mM solution of Pet-3 in the attempt to induce tolerance for Pet-3. CCRC were then measured for the vasorelaxing effect of Pet-3 on a group of rings which were pre-exposed to Pet-3 as to induce tolerance to Pet-3, and for an untreated control group. The above protocol was repeated with Pet-2, Pet-7, Pet-8, Pet-12, Pet-24, Pet-43, Pet-149 and Pet-152.

[2] = test system: c-GMP in slices of thoracic aorta of rats; experiment: Cyclic-GMP measurement in aortic rat tissue (radioimmunoassay); format: cell-based
Protocol: GTN (10^−6 M) was added to the chamber and, 1 minute after exposure to the drug, rings (usually 3-5) were taken, wrapped with aluminum foil and immediately frozen in liquid nitrogen for storage. Control sample group was treated with the vehicle solution only. At the time of analysis, rings were thawed, blotted over a dry gauzed and weighted. A known weight of tissue was homogenized in 2 ml ice-cold modified Hank's balanced salt solution containing (in gram/liter) NaCl 8; KCl 0.4; glucose 1; KH2PO4 0.06; Na2HPO4 0.047; Phenol red 0.017 and further containing 25 mM EDTA (disodium salt). The homogenate was centrifuged at 4000 g (force units) for 10 minutes at 2-4° C. and the supernatant was thereafter transferred into fresh pre-cooled test tube containing 1 ml of acetonitrile. The tubes were vortex mixed for a few seconds and subsequently centrifuged at 4000 g for 5 minutes at 2-4° C., to remove the precipitated protein. Each supernatant was transferred into a clean test tube and evaporated to dryness under a stream of nitrogen at 55° C. The dry residue was reconstituted with 10 volumes of Tris-EDTA buffer pH 7.5 (0.05 M Tris containing 4 mM EDTA). Aliquots of 100 μl of the reconstituted solution in duplicate were used for c-GMP measurements using Amersham RIA kit, as is described in Haj-Yehia & Benet [Pharmacology, 1995, 273, 1, pp. 94-100]. Standard curves were plotted with six concentrations (0, 0.5, 1, 2, 4 and 8 pmoles of c-GMP per tube).
The NO-tolerance effect of GTN and NO-donor compounds according to the present invention was measured by following the production of c-GMP in slices of thoracic aorta of rats. Thus, the production of c-GMP was measured as described in the methods section above for the reference NO-donor compound GTN, and for the NO-donors of the present invention Pet-2, Pet-3, Pet-7, Pet-8, Pet-10, Pet-12, Pet-24, Pet-59, Pet-106, Pet-107, Pet-120, Pet-147, Pet-149, Pet-152, Pet-154 and Pet-155.

isolated rat aorta [3] = experiment: Chronic administration of Pet-120 and vasoactivity determination in isolated aorta; format: in vivo; settings: Pet-120 for 7 days
Protocol: Male Sprague Dawley rats (250 to 300 grams) were used and housed under constant temperature and humidity conditions. The animals were anesthetized with intraperitoneal injection of ketamine and xylazine combination (50 and 10 mg/kg, respectively). An osmotic miniature pump (ALZA Corp., Palo Alto, Calif.) delivering constant volume (10 μl/hour) of vehicle and Pet-120 was connected to one of the intravenous catheters. The animals received 200 μg/hour for 7 days. As control, a similar number of animals underwent the same surgical procedure and received the vehicle alone (10 μl/hour of a solution consisting of 30% ethanol and 30% propylene glycol in sterile distilled water for injection). At the end of the infusion periods the rats were anesthetized by the combination described above. The abdomen was opened by midline incision and the thoracic aorta was isolate, washed and cleaned from the surrounding tissues.
The aorta of the rats which were treated as described hereinabove was cut into rings of 4-5 mm long each. The rings were mounted under 1 g tension in organ bath containing 30 ml of Krebs-Hansliet solution (pH 7.4) of the following composition (mM): NaCl […], CaCl2 1.6, MgSO4 1.2, KH2PO4 1.2, NaHCO3 25.0, D-glucose 11.1. At 37 C° and gassed with 95% O2- 5% CO2. […]

Sprague-Dawley rats = experiment: Effects of Pet-120 on the endothelial dysfunction of angiotensin II induced hypertension in rats; format: in vivo, rat; settings: Pet-120 with Ang II for 14 days; aortic rings, acetylcholine curves
Protocol: Male Sprague-Dawley rats were housed in separate cages and maintained in a temperature regulated room on a 12-hour light/dark cycle. Throughout the experiments, animals had free access to water and standard rat chow. Rats weighing 270 to 310 grams at the beginning of the experiments were anesthetized with ketamine and xylazine (50 and 10 mg/kg, respectively), and an osmotic miniature pump (model 2002; Alza Co) was implanted subcutaneously at the dorsum of the neck. Rats were selected at random and divided into three groups. The first group used as control and received the vehicle alone. The second group received angiotensin II (Ang II, Sigma Chemical Co) infusion (n=3) at a rate of 80 ng/minute or vehicle (n=2; for a period of 14 days. The third group (n=3) received both Ang II (as the second group) and Pet-120 at rate 167 ng/minute for 14 days. At the end of the treatment, rats were anesthetized with ketamine and xylazine (50 and 10 mg/kg, respectively), and both the osmotic pumps and the catheters were removed, and the animals were allowed to recover for 24 hours before initiation of the experiment.
Thereafter a section of the thoracic aorta (with endothelium) was removed from the rats, dissected free of fat and connective tissue in oxygenated Krebs-Hanseliet solution (pH 7.4). […]

## Cc1nc(-c2ccc([N+](=O)[O-])cc2)sc1CCO[N+](=O)[O-] [Pet-120, 4-Methyl-5-(2-nitrooxy-ethyl)-2-(4-nitro-phenyl)-thiazole]
Isolated rat aorta [1]
  tolerance induction in vitro (vasorelaxation, pre-treated versus control rings): absence of tolerance induction; also recorded: lack of tolerance inducement
[2]; isolated rat aorta, radioimmunoassay
  accumulation of cyclic-GMP as compared with GTN: increased levels of cGMP
[2]; rat thoracic aorta, post-infusion (repeated treatment)
  cGMP Post-infusion: 133 ± 12 pmol/g tissue
Isolated rat aorta [3]
  tolerance induction after daily in-vivo administration over 7 days versus single dose (vasorelaxation in isolated aorta): absence of tolerance inducement; also recorded: not to induce tolerance
Sprague-Dawley rats
  vasorelaxation after Ang II induced hypertension: notable capacity to induce vasorelaxation
